Several values for one entry are separate records, joined by “and”; a condition that tells them apart may be missing. Identical values can stand only once.
Settings: Liquid

CCCCCCCCCCCC(=O)OC [methyl dodecanoate]
Transpiration method
Settings	vapor or sublimation pressure [kPa]
323.8 K	0.00609
325.9 K	0.00701
327.9 K	0.00853
329.9 K	0.00982
331.8 K	0.0113
333.9 K	0.0134
335.7 K	0.0164
338.7 K	0.0198
340.7 K	0.0228
344.1 K	0.0291
345.9 K	0.0331
349.3 K	0.0413
351.3 K	0.047
354.4 K	0.0603
356.4 K	0.0682
359.6 K	0.0828
361.5 K	0.0952
364.7 K	0.11
366.7 K	0.132
370 K	0.16
371.8 K	0.178
374.7 K	0.214
378.6 K	0.263
381.7 K	0.314
386.8 K	0.412
389.6 K	0.491
391.9 K	0.534
394.9 K	0.635
397 K	0.694
399.2 K	0.774
401.3 K	0.898

CCCCCCCCCCCCCCCCC(=O)OC [methyl heptadecanoate]
Transpiration method
Settings	vapor or sublimation pressure [kPa]
337.9 K	0.000259
339.75 K	0.000298
341.8 K	0.000371
342.85 K	0.000395
345.85 K	0.000532
347.95 K	0.000685
350 K	0.000803
354.3 K	0.00114
357.5 K	0.00144
360.6 K	0.00195
362.5 K	0.00206
365.25 K	0.00272
366.85 K	0.00301
369 K	0.00377
372.3 K	0.00464
376.2 K	0.0058
379.2 K	0.00772
382.25 K	0.0089
385.65 K	0.0111
387 K	0.0126
389.25 K	0.0152
391.3 K	0.0176
393.4 K	0.0186
396.2 K	0.0246
399.2 K	0.0302
402.35 K	0.0355
405.3 K	0.044
408.15 K	0.0523
412.2 K	0.0635

CCCCCCCCCCCCCCCC(=O)OC [methyl hexadecanoate]
Settings	vapor or sublimation pressure
308.12 K	2.814e-05 kPa
312 K	4.574e-05 kPa
312.96 K	5.318e-05 kPa
312.97 K	4.817e-05 kPa
314.42 K	5.995e-05 kPa
315.4 K	6.903e-05 kPa
316.85 K	7.591e-05 kPa
317.81 K	8.232e-05 kPa
317.82 K	8.757e-05 kPa
319.27 K	0.0001 kPa
320.26 K	0.0001123 kPa
321.71 K	0.0001276 kPa
322.66 K	0.0001426 kPa
322.67 K	0.000144 kPa
324.12 K	0.0001655 kPa
325.11 K	0.0001853 kPa
326.56 K	0.0002146 kPa
327.52 K	0.0002379 kPa and 0.0002346 kPa
328.98 K	0.0002676 kPa
329.96 K	0.0002973 kPa
331.42 K	0.0003403 kPa
332.37 K	0.0003763 kPa and 0.000377 kPa
333.83 K	0.000429 kPa
334.83 K	0.0004701 kPa
336.28 K	0.0005477 kPa
337.23 K	0.0006044 kPa and 0.0005995 kPa
338.69 K	0.0006834 kPa
339.69 K	0.0007518 kPa
341.14 K	0.0008558 kPa
342.09 K	0.0009461 kPa and 0.0009339 kPa
343.55 K	0.00107 kPa
344.55 K	0.001176 kPa
345.01 K	0.001226 kPa
346 K	0.001334 kPa
346.95 K	0.001462 kPa and 0.001463 kPa
348.41 K	0.001655 kPa
349.41 K	0.001817 kPa
349.87 K	0.001888 kPa
350.86 K	0.002055 kPa
351.82 K	0.002257 kPa
353.27 K	0.002528 kPa
354.29 K	0.002774 kPa
354.73 K	0.002884 kPa
355.73 K	0.003112 kPa
356.67 K	0.003414 kPa
358.13 K	0.003814 kPa
359.16 K	0.004171 kPa
359.59 K	0.004332 kPa
359.63 K	0.004286 kPa
360.59 K	0.004673 kPa
361.55 K	0.005107 kPa
363 K	0.00565 kPa
364.02 K	0.006171 kPa
364.45 K	0.006382 kPa
364.49 K	0.006315 kPa
365.45 K	0.006842 kPa
366.41 K	0.00747 kPa
367.87 K	0.008233 kPa
368.87 K	0.008934 kPa
369.32 K	0.009208 kPa
371.29 K	0.01071 kPa
371.74 K	0.01102 kPa
372.64 K	0.01169 kPa
372.73 K	0.01183 kPa
375.03 K	0.0139 kPa
377.49 K	0.0166 kPa
379.9 K	0.01941 kPa
382.34 K	0.02319 kPa
384.76 K	0.02705 kPa
387.21 K	0.03214 kPa
389.66 K	0.03772 kPa
392.06 K	0.04434 kPa
394.52 K	0.05191 kPa
396.92 K	0.06045 kPa
399.39 K	0.07078 kPa
401.78 K	0.08154 kPa
404.23 K	0.09507 kPa
406.65 K	0.1092 kPa
409.09 K	0.1267 kPa
411.5 K	0.1469 kPa
411.52 K	0.1459 kPa
416.35 K	0.1929 kPa
421.21 K	0.2522 kPa
426.08 K	0.3266 kPa
428.52 K	0.37 kPa
430.94 K	0.4193 kPa
